According to patent EP1631829B1, “METHOD AND APPARATUS FOR CHARACTERIZATION OF INTERACTIONS” (GE Healthcare Bio-Sciences AB, priority 2003, dated 2004):

Molecular target: T1, HSA (Homo sapiens, UniProt P02768)
T1 construct: purchased Sigma A 3782
Assay: two-sample (dual) gradient pulse injection SPR assay, site availability of drugs binding to HSA
Conditions: digitoxin and warfarin, 50 µM each, added individual responses vs mixture, 25 °C

T1 sequence (P02768 25-609): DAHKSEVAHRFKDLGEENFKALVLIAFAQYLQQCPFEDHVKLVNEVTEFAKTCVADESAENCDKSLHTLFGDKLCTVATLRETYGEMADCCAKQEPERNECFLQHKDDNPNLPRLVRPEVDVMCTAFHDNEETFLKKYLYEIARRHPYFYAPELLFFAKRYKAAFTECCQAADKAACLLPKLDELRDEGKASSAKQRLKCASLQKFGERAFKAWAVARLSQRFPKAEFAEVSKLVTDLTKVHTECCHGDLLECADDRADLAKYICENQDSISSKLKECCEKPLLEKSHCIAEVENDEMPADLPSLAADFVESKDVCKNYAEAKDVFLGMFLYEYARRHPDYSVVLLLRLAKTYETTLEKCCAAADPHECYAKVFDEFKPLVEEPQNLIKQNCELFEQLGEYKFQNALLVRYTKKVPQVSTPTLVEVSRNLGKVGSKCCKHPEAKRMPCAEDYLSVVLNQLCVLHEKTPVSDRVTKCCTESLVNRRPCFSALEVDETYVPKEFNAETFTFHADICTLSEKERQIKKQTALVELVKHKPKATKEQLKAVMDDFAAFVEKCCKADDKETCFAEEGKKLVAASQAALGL

SMILES: C[C@H]1O[C@@H](O[C@H]2[C@@H](O)C[C@H](O[C@H]3[C@@H](O)C[C@H](O[C@H]4CC[C@@]5(C)[C@H](CC[C@@H]6[C@@H]5CC[C@]5(C)[C@@H](C7=CC(=O)OC7)CC[C@]65O)C4)O[C@@H]3C)O[C@@H]2C)C[C@H](O)[C@@H]1O [Digitoxin, digitoxin]
- binding site relation on HSA: non-competitive binders
